Results as given in patent US12029730B2, “Pharmaceutical composition for preventing or treating cancer, containing N-1H-benzimidazol-2-yl-3-(1H-pyrrole-1-yl)benzamide as active ingredient” (KOREA INSTITUTE OF RADIOLOGICAL & MEDICAL SCIENCES, priority 2018, dated 2024).

How the values were obtained:
Assay type in all cases: cell-based, human
[1] = tested on: MCF7 cells; assay: Tumorsphere formation assay; conditions: MCF7, cultured 15 days, compared to DMSO, FIG. 8
Protocol: A tumorsphere formation assay was performed in order to determine whether the selected MKI-1 can effectively reduce the formation of tumorsphere in cancer cells, Breast cancer cells MCF7 (2500-10000 cells) was suspended in serum-free DMEM/F12 (weIGENE) containing 1% penicillin, B-27 (1:50; invitrogen), 20 ng/mL epidermal cell growth factor (R&D Systems) and 20 ng/mL fibroblast growth factor (R&D Systems) and cultured on plates with low adhesion rate. After 24 hours, the cells were treated with MASTL kinase inhibitors (AT13148, MKI-1 and GKI-1), respectively, and cultured for 15 days, and then the diameter of the tumorsphere was measured and quantified, which was shown in FIG. 8.

[2] = tested on: MCF7 cells; assay: Colonogenic assay and western blotting with 2.5 Gy radiation, MCF7; conditions: for sensitivity to radiation therapy (colony number): MCF7, 2.5 Gy, compared to DMSO, FIG. 10A/10B
Protocol: A colonogenic assay was performed in order to confirm whether the sensitivity to the radiation treatment effect can be increased when MCF7 cancer cell line was treated with MKI-1. First, breast cancer cells MCF7 (500-1000 cells) were placed in a 60-mm tissue culture medium on a 60 mm culture plate, and treated with MASTL kinase inhibitors (AT13148, MKI-1 and GKI-1), respectively, and then was treated with 2.5 Gy radiation by Biobeam GM8000 (Gamma-Gamma-Service Medical GmbH, Leipzig, Germany) and the control group was not treated with radiation. After 10 to 14 days, the cell colonies were fixed with methanol and stained with 0.5% crystal violet, and the results were shown in FIG. 10A, and the number of colonies shown in the above results was quantified using Image J software to show in 10B, and then western blotting was performed and the results thereof were shown in FIG. 10C.

[3] = tested on: MCF7 cells; assay: 3D culture spheroid formation; conditions: MCF7 3D culture, AT13148 2 μM, GKI-1 10 μM, MKI-1 10 μM, FIG. 9
Protocol: 3D culture was performed according to the protocol of the manufacturing company TheWell Bioscience. It was inoculated into 24-wells containing a DMEM mixture containing 10,000 MCF7 cells in an MCF7 cell:hydrogel solution in a ratio of 1:3 (v/v) and VitroGel™ 3D-RGD diluted with 0.1% PBS in a ratio of 1:3 (v/v) of a hydrogel:diH2O. Thereafter, incubation was performed at 37° C. for 15 minutes to stabilize the VitroGel 3D-RGD hydrogel. To cover the hydrogel, the same volume of DMEM as the hydrogel was added, and the next day, the hydrogel was treated with a DMSO base drug containing DMSO, AT13148 (2 μM), GKI-1 (10 μM) and MKI-1 (10 μM). The medium was exchanged every 2 days for 14 to 20 days.

[4] = tested on: CD44^high/CD24^low MCF7 cells; assay: Colonogenic assay and western blotting with 2.5 Gy radiation, radioresistant CD44high/CD24low MCF7; conditions: for sensitivity to radiation therapy (colony number): CD44high/CD24low MCF7, 2.5 Gy, compared to DMSO, FIG. 11A/11B
Protocol: A colonogenic assay was performed in order to confirm whether the sensitivity to the radiation treatment effect was increased even in the CD44^high/CD24^low MCF7 cancer cell line having a radioresistant phenotype, when it was treated with MKI-1. First, breast cancer cells CD44^high/CD24^low MCF7 (500-1000 cells) were placed in a 60-mm tissue culture medium on a 60 mm culture plate, and treated with MASTL kinase inhibitors (AT13148, MKI-1 and GKI-1), respectively, and then was treated with 2.5 Gy radiation by Biobeam GM8000 (Gamma-Gamma-Service Medical GmbH, Leipzig, Germany) and the control group was not treated with radiation. After 10 to 14 days, the cell colonies were fixed with methanol and stained with 0.5% crystal violet, and the results were shown in FIG. 11A, and the number of colonies shown in the above results was quantified using Image J software to show in 11B, and then western blotting was performed and the results thereof were shown in FIG. 11C.

[5] = tested on: MASTL kinase (p-ENSA); assay: Western blotting of phosphorylated ENSA in MCF7 cells; conditions: western blot, FIG. 5
Protocol: (§1) 20 μg of protein was separated by SDS-PAGE electrophoresis and transferred to a PVDF membrane, and the following specific antibodies were used: rabbit polyclonal antibody MASTL (Abgent); phospho-ENSA (Ser67)/ARPP19 (Ser62) (#5240), ENSA (#11915S), cleaved PARP (Asp214) (#9541), AKT (#9272), phospho-AKT (ser473) (#9271), phospho-GSK-3α/β (Ser21/9) (#9331), phospho-p70S6K (The 288) (#9205) and phospho-Chk2 (Thr68) (#2661; Cell Signaling Technology, MA); p70S6K (sc-230; Santa Cruz Biotechnology, CA, USA), phospho-H3 (S10) (06-570, Merck, NJ); mouse monoclonal antibody caspase-2 (#2224S). In addition, mouse […] antibody β-actin (C4; Santa Cruz Biotechnology, CA, USA) was used as a loading control, it was washed with 1×PBS/0.1% Tween 20, and the binding protein was detected using HRP-binding secondary antibody and improved chemiluminescence detection system. The remaining conditions of Western blotting were the same as in Example 3, and the image of the band was obtained by Amersham Imager 600 system (GE Healthcare Life Science) or X-Ray film (AG, HealthCare, SC, USA) and it was shown in FIG. 5.

[6] = tested on: MASTL kinase (phosphorylated ENSA); assay: Immunofluorescence staining of phosphorylated ENSA (Ser67)/ARPP19 (ser62) in MCF7; conditions: with Colcemid 16 to 18 hours, FIG. 4
Protocol: After culturing 2.5×10^4 MCF7 cells in a 6-well plate for 24 hours, 80 ng/mL of a MASTL kinase inhibitor and a cell cycle control agent Colcemid (KaryoMAX™ Colcemid™ Solution in PBS; Gibco) were treated for 16 to 18 hours. After washing with phosphate buffered saline for fixation and permeabilization of cells, 4% paraformaldehyde and 0.2% Triton-X were added and reacted for 10 minutes, respectively. After 1 hour pretreatment with 5% fetal bovine serum, 1:100 diluted antibody against phosphorylated ENSA (Ser67)/ARPP19 (ser62) was treated for 16 hours, and then it was washed with 0.1% Triton X-100/phosphate buffered saline solution (Tritonx-100/PBS) 3 times. Alexa488-conjugated secondary antibody (AP132JA4, Invitrogen) was reacted for 2 hours at room temperature to label, and phosphorylated ENSA was photographed and analyzed using IN Cell Analyzer 6000 (GE Healthcare Life Science).

[7] = tested on: phospho-H3 (S10); assay: Western blotting of phosphorylated H3 in MCF7 cells; conditions: western blot, FIG. 5
Protocol: as §1

[8] = tested on: AKT; assay: Western blotting of AKT and GSK-3 phosphorylation in MCF7 cells; conditions: western blot, FIG. 5
Protocol: as §1

[9] = MCF7, after radiation treatment, FIG. 10C
[10] = CD44high/CD24low MCF7, after radiation treatment, FIG. 11C

Row | Structure (SMILES) | tumorsphere diameter [1] | sensitivity to radiation therapy (colony number) [2] | size of cancer cell spheroid [3] | sensitivity to radiation therapy (colony number) [4] | expression levels of cleaved-PARP and phosphorylated Chk2 [2, 9] | expression levels of procaspase-2 [2, 9] | expression level of phosphorylated p-ENSA [5] | phosphorylation of ENSA in MCF7 relative to DMSO [6] | expression level of phosphorylated H3 [7] | activation of AKT / phosphorylated GSK-3 [8] | expression levels of cleaved-PARP and phosphorylated Chk2 [4, 10] | expression levels of procaspase-2 [4, 10]
1 | Clc1ccc(Nc2cccc(-c3cn[nH]c3)c2)cc1 [GKI-1, N-(4-chlorophenyl)-3-(1H-pyrazol-4-yl)aniline, reference compound] | hardly decreased | no synergistic effect | hardly decreased | no synergistic effect | – | – | – | – | – | – | – | –
2 | O=C(Nc1nc2ccccc2[nH]1)c1cccc(-n2cccc2)c1 [MKI-1, N-1H-benzimidazol-2-yl-3-(1H-pyrrol-1-yl) benzamide] | significantly decreased | significantly higher | significantly reduced | significant increase in sensitivity to radiation treatment | increased | decreased | reduced the expression level of phosphorylated p-ENSA in MCF7 cells in a dose-dependent manner | close to about half of that of DMSO | increased the expression level of phosphorylated H3 in a dose-dependent manner | did not regulate the activities of AKT and phosphorylated GSK-3P | increased | decreased
